Earlier results, collected in publication PMC7163368 (British Journal of Clinical Pharmacology, 2020).

Settings: cited from earlier work

Compound | Oral bioavailability [%] | further results
CC#CCn1c(N2CCC[C@@H](N)C2)nc2c1c(=O)n(Cc1nc(C)c3ccccc3n1)c(=O)n2C [linagliptin] | – | Terminal half‐life (currently available oral gliptines): 105 h
N#C[C@@H]1C[C@@H]2C[C@@H]2N1C(=O)[C@@H](N)C12CC3CC(CC(O)(C3)C1)C2 [saxagliptin] | 67 | –
N[C@@H](CC(=O)N1CCn2c(nnc2C(F)(F)F)C1)Cc1cc(F)c(F)cc1F [sitagliptin] | – | Plasma levels higher in female subjects (female vs male subjects): approximately 25%
N#C[C@@H]1CCCN1C(=O)CNC12CC3CC(CC(O)(C3)C1)C2 [vildagliptin] | 85 | –
